Laboratory results taken from ChEMBL document CHEMBL5247584, “Design, synthesis and evaluation of fused hybrids with acetylcholinesterase inhibiting and Nrf2 activating functions for Alzheimer's disease” (Eur J Med Chem, 2022).
pIC50: −log10 of the molar value. Active and inactive are the calls of the source. No cut-off for these calls is given here.

Legend:
Acetylcholinesterase = Acetylcholinesterase (Electrophorus electricus, UniProt O42275); test: Inhibition of electric eel AChE using ATC and BTC iodide as substrate preincubated for 5 mins followed by substrate addition and measured after 2 mins by DTNB reagent based assay
Cholinesterase = Cholinesterase (Equus caballus, UniProt P81908); test: Inhibition of equine serum BuChE using ATC and BTC iodide as substrate preincubated for 5 mins followed by substrate addition and measured after 2 mins by DTNB reagent based assay
[1] = […] in rat PC12 cells assessed as morphological changes; format: toxicity, cell-based; settings: pc-12
PC-12 = test: Cytotoxicity against rat PC12 cells assessed as growth inhibition at 5 uM after 24 hrs by MTT assay; format: toxicity, cell-based; settings: pc-12, 24 h
[2] = target: T1, Nuclear factor erythroid 2-related factor 2 (Rattus norvegicus) (UniProt O54968); test: Activation of Nrf2 pathway in rat PC-12 cells assessed as increase in GCLM level at 20 uM measured after 6 hrs by Western blot analysis; format: cell-based; settings: PC12, filed as activator
T1 sequence (whole entry): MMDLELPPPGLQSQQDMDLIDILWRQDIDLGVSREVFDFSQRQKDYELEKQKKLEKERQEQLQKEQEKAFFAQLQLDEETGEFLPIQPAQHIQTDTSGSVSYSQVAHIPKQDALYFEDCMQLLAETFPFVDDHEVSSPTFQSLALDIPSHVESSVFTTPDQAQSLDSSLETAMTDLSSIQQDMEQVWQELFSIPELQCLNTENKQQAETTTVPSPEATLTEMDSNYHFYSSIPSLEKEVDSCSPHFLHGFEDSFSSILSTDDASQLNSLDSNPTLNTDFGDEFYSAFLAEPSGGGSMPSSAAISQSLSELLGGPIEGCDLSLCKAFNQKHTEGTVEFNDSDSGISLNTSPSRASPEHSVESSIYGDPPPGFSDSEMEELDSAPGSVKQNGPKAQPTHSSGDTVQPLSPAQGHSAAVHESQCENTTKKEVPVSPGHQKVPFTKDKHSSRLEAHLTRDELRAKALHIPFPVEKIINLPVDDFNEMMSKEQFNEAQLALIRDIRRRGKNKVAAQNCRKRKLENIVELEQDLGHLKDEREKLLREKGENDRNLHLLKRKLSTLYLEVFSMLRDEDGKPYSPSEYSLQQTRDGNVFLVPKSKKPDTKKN

[3] = target: T1, Nuclear factor erythroid 2-related factor 2 (Rattus norvegicus); test: Induction of Nrf2 pathway in rat PC12 cells assessed as fold increase in Nrf2 level at 20 uM measured after 6 hrs by Western blot analysis; format: cell-based; settings: filed as activator
[4] = target: T1, Nuclear factor erythroid 2-related factor 2 (Rattus norvegicus); test: Activation of Nrf2 pathway in rat PC-12 cells assessed as fold increase in NQO1 level at 20 uM measured at 2 hrs by qRT-PCR analysis; format: cell-based; settings: PC12, filed as activator
[5] = target: T1, Nuclear factor erythroid 2-related factor 2 (Rattus norvegicus); test: Activation of Nrf2 pathway in rat PC-12 cells assessed as fold increase in Nrf2 expression level at 1 to 20 uM measured at 6 hrs by qRT-PCR analysis; format: cell-based; settings: PC12, filed as activator, dose 1-20 µM
[6] = target: T1, Nuclear factor erythroid 2-related factor 2 (Rattus norvegicus); test: Activation of Nrf2 pathway in rat PC-12 cells assessed as fold increase in NQO1 expression level at 1 to 20 uM measured at 6 hrs by qRT-PCR analysis; format: cell-based; settings: PC12, filed as activator, dose 1-20 µM
[7] = target: T1, Nuclear factor erythroid 2-related factor 2 (Rattus norvegicus); test: Activation of Nrf2 pathway in rat PC-12 cells assessed as decrease in Nrf2 accumulation in cytoplasm at 20 uM measured after 1 to 5 hrs by Western blot analysis; format: cell-based; settings: PC12, time 1-5 hrs
[8] = target: T1, Nuclear factor erythroid 2-related factor 2 (Rattus norvegicus); test: Induction of Nrf2 nuclear translocation in rat PC12 cells measured for 12 hrs by FITC staining based confocal microscopic analysis; format: cell-based; settings: filed as activator
BV-2 = test: Neuroprotective activity against LPS-induced mouse BV-2 cells assessed as inhibition of ROS production at 1 to 40 uM preincubated for 1 hr followed by LPS stimulation and measured after 24 hrs by DCFH-DA staining based microplate reader anlaysis; format: functional, cell-based; settings: dose 1-40 µM, time 25.0 hrs
Mus musculus = test: Cognitive enhancing effect in amyloid beta (1 to 42)-induced ICR mouse model assessed as increase in ACh level at 20 mg/kg […] by ELISA; format: functional, organism-based

Chain of Cholinesterase (P81908 whole entry): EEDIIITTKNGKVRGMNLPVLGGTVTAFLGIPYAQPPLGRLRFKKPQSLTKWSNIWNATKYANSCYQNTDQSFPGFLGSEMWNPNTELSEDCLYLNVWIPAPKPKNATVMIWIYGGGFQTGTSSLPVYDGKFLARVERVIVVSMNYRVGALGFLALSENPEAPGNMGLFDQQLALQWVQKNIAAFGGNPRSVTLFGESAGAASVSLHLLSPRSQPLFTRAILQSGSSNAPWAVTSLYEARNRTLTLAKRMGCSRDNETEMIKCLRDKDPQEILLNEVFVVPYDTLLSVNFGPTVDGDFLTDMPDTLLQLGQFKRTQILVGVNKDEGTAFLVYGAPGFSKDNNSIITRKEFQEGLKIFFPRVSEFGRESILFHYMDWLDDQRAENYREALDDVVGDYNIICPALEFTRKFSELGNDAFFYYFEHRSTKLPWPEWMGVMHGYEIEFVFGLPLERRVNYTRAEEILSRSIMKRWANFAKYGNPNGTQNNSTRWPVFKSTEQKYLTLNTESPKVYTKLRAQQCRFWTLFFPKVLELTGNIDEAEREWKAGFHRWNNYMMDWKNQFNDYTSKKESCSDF
Chain of Acetylcholinesterase (O42275 whole entry): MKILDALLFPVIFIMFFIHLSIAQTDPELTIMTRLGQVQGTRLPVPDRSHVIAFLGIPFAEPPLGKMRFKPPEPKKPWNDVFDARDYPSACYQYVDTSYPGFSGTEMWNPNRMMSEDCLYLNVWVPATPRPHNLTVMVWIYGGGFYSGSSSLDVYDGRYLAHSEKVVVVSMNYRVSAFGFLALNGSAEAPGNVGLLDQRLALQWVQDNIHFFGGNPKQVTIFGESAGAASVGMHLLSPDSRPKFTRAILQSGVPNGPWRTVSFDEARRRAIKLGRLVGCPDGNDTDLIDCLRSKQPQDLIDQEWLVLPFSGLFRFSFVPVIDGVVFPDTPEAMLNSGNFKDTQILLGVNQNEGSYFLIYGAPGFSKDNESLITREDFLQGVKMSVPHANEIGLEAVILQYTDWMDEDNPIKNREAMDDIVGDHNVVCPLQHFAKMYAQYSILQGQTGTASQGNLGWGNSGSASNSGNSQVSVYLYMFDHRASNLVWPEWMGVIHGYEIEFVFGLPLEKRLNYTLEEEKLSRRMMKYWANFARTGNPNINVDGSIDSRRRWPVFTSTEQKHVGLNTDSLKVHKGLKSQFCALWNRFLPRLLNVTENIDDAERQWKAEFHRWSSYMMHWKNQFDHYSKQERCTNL

Cc1ccc(-c2noc(-c3cccc(OCC4CCN(Cc5cccc(F)c5)CC4)c3)n2)cn1
pIC50 (Acetylcholinesterase): 7.15
pIC50 (Cholinesterase): 5.09
Activity [1]: Non-Toxic
Activity (PC-12): Non-Toxic
Activity [2]: Active
fold change (FC) [3]: 4
fold change (FC) [4]: 8
fold change (FC) [5]: 4
fold change (FC) [6]: 4
Activity [7]: inactive
Activity [8]: Active
Activity (BV-2): Active
Activity (Mus musculus): inactive
